Laboratory results taken from US20050267221A1, “Use of curcumin and analogues thereof as inhibitors of ACC2” (Research Development Foundation, priority 2004, published 2005).

Tests used:
recombinant human ACC2 = recombinant human ACC2 (Homo sapiens, UniProt O00763); experiment: Radioactive assay of ACC2 activity ([14C]KHCO3 incorporation into malonyl-CoA); type: biochemical
Description: The reaction mixture contained 50 mM HEPES, pH 7.5, 2.5 mM MnCl2, 2.0 mM DTT, 0.125 mM acetyl-CoA, 4.0 mM ATP, 12.5 mM [^14C]KHCO3 (4×10^6 dpm), 0.75 mg/mL BSA, 10 mM tripotassium citrate and 0.1-0.2 μg ACC enzyme, in a total volume of 150 μL. The reaction was initiated by the addition of ACC2 and the assay was carried out at 37° C. for 2-7 min. The reaction was stopped by the addition of 50 μL of 6 N HCl. Subsequently, 150 μL was transferred into a glass scintillation vial and evaporated to dryness by heating to 85° C. in a heating block for 1 hour. The dried vials were cooled, 0.5 mL of water and 5 mL of ScintiSafe™ 30% were added, and the radioactivity was determined in a Beckman liquid scintillation counter (LS 3801). The tubes, where HCl was added before the addition of acetyl-CoA carboxylase, served as blanks. Avicin G and curcumin inhibitors were made up as stock solutions in water and DMSO, respectively, and added to the assay at the indicated concentrations such that the DMSO concentration was 1% (v/v). All reactions were performed in duplicate. Enzyme activity was based on radioactivity detected in malonyl-CoA and the dpm's set to 100% activity in the absence of any test compound. Inhibition by 1% (v/v) DMSO which was 16% was subtracted from values obtained in the dose response study.
A dose-response series was conducted with curcumin (in DMSO) to verify a classical inhibition pattern. In this study, all curcumin concentrations were added in 1% (v/v) DMSO and the enzyme activity measured.
The radioactive assay (as described in Example 3) was used to determine effects of the test compounds, avicin G and curcumin, on human acetyl-CoA carboxylase 2.

[1] = cited from earlier work

recombinant human ACC2, sequence (O00763 whole entry): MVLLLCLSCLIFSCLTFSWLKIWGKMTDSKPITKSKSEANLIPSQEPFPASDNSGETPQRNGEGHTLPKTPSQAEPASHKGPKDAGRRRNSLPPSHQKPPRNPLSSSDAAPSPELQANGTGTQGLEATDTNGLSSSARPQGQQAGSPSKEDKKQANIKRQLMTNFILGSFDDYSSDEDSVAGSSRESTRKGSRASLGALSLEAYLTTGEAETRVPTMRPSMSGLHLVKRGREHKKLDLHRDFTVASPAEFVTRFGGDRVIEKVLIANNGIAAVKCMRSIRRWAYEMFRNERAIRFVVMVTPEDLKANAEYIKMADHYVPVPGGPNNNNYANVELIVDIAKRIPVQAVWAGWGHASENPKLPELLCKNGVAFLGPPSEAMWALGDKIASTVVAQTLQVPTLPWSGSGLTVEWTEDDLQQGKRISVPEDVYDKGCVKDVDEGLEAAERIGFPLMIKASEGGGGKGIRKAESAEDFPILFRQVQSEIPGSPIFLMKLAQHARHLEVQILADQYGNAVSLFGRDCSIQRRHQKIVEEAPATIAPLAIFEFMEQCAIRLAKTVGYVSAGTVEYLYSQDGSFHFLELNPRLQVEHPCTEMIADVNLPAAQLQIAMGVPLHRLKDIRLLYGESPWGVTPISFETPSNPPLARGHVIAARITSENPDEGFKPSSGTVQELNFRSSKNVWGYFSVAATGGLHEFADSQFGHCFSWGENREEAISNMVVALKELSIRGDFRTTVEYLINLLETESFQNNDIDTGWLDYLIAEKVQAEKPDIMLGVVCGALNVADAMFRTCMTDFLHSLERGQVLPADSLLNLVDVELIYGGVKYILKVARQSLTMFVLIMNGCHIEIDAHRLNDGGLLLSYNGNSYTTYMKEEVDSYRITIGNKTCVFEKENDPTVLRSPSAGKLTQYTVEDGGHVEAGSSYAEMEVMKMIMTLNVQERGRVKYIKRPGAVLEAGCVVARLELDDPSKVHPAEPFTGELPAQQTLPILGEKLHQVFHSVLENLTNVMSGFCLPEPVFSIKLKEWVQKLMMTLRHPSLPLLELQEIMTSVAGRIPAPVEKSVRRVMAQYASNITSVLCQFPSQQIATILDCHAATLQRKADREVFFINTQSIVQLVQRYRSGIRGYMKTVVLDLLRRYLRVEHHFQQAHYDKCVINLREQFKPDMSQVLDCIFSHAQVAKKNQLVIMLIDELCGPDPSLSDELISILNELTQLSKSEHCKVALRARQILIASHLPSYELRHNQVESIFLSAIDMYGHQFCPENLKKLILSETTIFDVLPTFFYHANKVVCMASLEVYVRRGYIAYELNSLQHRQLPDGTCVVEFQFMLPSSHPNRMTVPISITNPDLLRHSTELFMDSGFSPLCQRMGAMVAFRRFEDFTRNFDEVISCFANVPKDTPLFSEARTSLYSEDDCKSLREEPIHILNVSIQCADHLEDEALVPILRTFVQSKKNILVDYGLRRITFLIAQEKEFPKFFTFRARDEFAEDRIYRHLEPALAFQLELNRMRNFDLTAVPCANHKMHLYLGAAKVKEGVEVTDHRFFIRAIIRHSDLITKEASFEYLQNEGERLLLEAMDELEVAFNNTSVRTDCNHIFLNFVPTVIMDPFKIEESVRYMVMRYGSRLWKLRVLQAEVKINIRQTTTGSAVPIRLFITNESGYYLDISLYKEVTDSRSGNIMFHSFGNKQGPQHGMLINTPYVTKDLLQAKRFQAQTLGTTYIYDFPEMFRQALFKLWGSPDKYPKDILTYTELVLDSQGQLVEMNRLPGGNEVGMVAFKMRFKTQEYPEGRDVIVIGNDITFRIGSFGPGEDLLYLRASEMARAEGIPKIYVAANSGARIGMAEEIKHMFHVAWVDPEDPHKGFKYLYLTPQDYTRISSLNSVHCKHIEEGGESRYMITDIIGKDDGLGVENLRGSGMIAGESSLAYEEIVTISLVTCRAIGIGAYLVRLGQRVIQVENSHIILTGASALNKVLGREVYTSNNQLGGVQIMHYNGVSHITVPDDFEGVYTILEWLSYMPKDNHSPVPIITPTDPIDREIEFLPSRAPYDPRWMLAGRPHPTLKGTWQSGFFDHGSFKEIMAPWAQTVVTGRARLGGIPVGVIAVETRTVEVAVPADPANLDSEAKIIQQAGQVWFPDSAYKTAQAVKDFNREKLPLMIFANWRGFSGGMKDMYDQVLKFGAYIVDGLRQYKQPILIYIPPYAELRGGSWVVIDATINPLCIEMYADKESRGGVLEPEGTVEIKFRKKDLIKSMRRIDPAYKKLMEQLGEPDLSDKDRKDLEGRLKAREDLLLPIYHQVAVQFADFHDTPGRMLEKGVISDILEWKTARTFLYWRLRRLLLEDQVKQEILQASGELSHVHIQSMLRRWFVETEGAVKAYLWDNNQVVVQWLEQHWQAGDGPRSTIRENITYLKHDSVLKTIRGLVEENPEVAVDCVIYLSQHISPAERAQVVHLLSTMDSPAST

| SMILES | ACC Activity (%) ± S.D. (recombinant human ACC2; human ACC2, additive at 50 μM, curcumin in 1% (v/v) DMSO final, activity without test compound = 100%, duplicate) [%] | dose-response inhibition of ACC2 (in words) (recombinant human ACC2; human ACC2, dose-response series, all concentrations in 1% (v/v) DMSO, FIG. 1) | effect on ACC2 activity (in words) (recombinant human ACC2; recombinant human ACC2, radioactive assay, conditions of Table 1) | activity at 50 µM (recombinant human ACC2; human ACC2, additive at 50 μM, curcumin in 1% (v/v) DMSO final, activity without test compound = 100%, duplicate, read-out: ACC Activity (%) ± S.D.) [%] | solubility in dimethylsulfoxide ([1]; dimethylsulfoxide) | solubility in ethanol ([1]; ethanol) | solubility in ether ([1]; ether) | solubility in water ([1]; water) |
| --- | --- | --- | --- | --- | --- | --- | --- | --- |
| C=C[C@](C)(O)CC/C=C(\C)C(=O)O[C@H]1[C@H](O)[C@@H](O)[C@H](O[C@@](C)(C=C)CC/C=C(\CO)C(=O)O[C@H]2C[C@]3(C(=O)O[C@@H]4O[C@H](CO)[C@@H](O)[C@H](O)[C@H]4O[C@@H]4O[C@@H](C)[C@H](O[C@@H]5O[C@@H](CO)[C@H](O)[C@H]5O)[C@@H](O[C@@H]5O[C@H](CO)[C@@H](O)[C@H](O)[C@H]5O)[C@H]4O)[C@H](O)C[C@]4(C)C(=CC[C@@H]5[C@@]6(C)CC[C@H](O[C@@H]7O[C@H](CO[C@@H]8O[C@H](C)[C@H](O)[C@H](O)[C@H]8O[C@@H]8OC[C@@H](O)[C@H](O)[C@H]8O)[C@@H](O)[C@H](O)[C@H]7NC(C)=O)C(C)(C)[C@@H]6CC[C@]54C)[C@@H]3CC2(C)C)O[C@@H]1C [avicin G] | 106 ± 7 | No significant inhibition | no significant effect | – | – | – | – | – |
| COc1cc(/C=C/C(=O)CC(=O)/C=C/c2ccc(O)c(OC)c2)ccc1O [curcumin, 1,7,-bis(4-hydroxy-3-methoxyphenyl)-1,6-heptadiene-3,5-dione] | – | – | – | 57 ± 3 | soluble | soluble | insoluble | insoluble |
